Reference: PubChem BioAssay AID248 (DTP/NCI, 2004)
Values joined by “and” are separate entries in the source; they are usually repeats but may differ in a detail not shown here. Identical values can stand only once. Toxic doses and inconclusive results are not listed. Cut-off read from the data, not from the text of the source: active = T/C of 150% or more; inactive = T/C below 125%.

System: L1210 leukemia ip in BDF1 mice, survival T/C
Assay: NCI In Vivo Anticancer Drug Screen. Data for tumor model L1210 Leukemia (intraperitoneal) in B6D2F1 (BDF1) mice
Conditions: endpoint: mean survival time, higher = longer survival
Method in brief: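 Transplantable tumor model; survival measured in treated vs vehicle control mice. Value = treated/control.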

[1] = dose: 5.0 mg/kg/injection, schedule: Q01DX001 (ip), vehicle: saline
[2] = dose: 10.0 mg/kg/injection, schedule: Q01DX001 (ip), vehicle: saline
[3] = dose: 20.0 mg/kg/injection, schedule: Q01DX001 (ip), vehicle: saline
[4] = dose: 40.0 mg/kg/injection, schedule: Q01DX001 (ip), vehicle: saline
[5] = dose: 80.0 mg/kg/injection, schedule: Q01DX001 (ip), vehicle: saline
[6] = dose: 100.0 mg/kg/injection, schedule: Q04DX003 (ip), vehicle: saline with Tween-80
[7] = dose: 200.0 mg/kg/injection, schedule: Q04DX003 (ip), vehicle: saline with Tween-80
[8] = dose: 400.0 mg/kg/injection, schedule: Q04DX003 (ip), vehicle: saline with Tween-80
[9] = dose: 100.0 mg/kg/injection, schedule: Q01DX009 (ip), vehicle: saline with Tween-80
[10] = dose: 200.0 mg/kg/injection, schedule: Q01DX009 (ip), vehicle: saline with Tween-80
[11] = dose: 100.0 mg/kg/injection, schedule: Q04DX002 (ip), vehicle: Klucel (hydroxypropylcellulose) (HPC)
[12] = dose: 200.0 mg/kg/injection, schedule: Q04DX002 (ip), vehicle: Klucel (hydroxypropylcellulose) (HPC)

Measured: T/C

C[C@]12CC[C@H]3[C@@H](CC[C@]4(O)C[C@@H](O)CC[C@]34C=O)[C@@]1(O)CC[C@@H]2c1ccc(=O)oc1
inactive: [1] 96 % of control | [2] 95 % of control | [3] 104 % of control | [4] 98 % of control | [5] 95 % of control

Cc1ccc(S(=O)(=O)N/N=C/C(C)(C)C(C)C)cc1
inactive: [6] 108 % of control | [7] 97 % of control | [8] 98 % of control

ClN=C(c1ccccc1)c1ccccc1
inactive: dose: 12.0 mg/kg/injection, schedule: Q01DX009 (ip), vehicle: Klucel (hydroxypropylcellulose) (HPC) 110 % of control | dose: 25.0 mg/kg/injection, schedule: Q01DX009 (ip), vehicle: Klucel (hydroxypropylcellulose) (HPC) 102 % of control | dose: 50.0 mg/kg/injection, schedule: Q01DX009 (ip), vehicle: Klucel (hydroxypropylcellulose) (HPC) 107 % of control | dose: 100.0 mg/kg/injection, schedule: Q04DX003 (ip), vehicle: Klucel (hydroxypropylcellulose) (HPC) 100 % of control | dose: 200.0 mg/kg/injection, schedule: Q04DX003 (ip), vehicle: Klucel (hydroxypropylcellulose) (HPC) 98 % of control

CC1CCN(C(=O)CC#N)CC1
inactive: dose: 50.0 mg/kg/injection, schedule: Q01DX009 (ip), vehicle: saline 108 % of control | dose: 100.0 mg/kg/injection, schedule: Q01DX009 (ip), vehicle: saline 112 % of control | dose: 100.0 mg/kg/injection, schedule: Q04DX002 (ip), vehicle: saline 102 % of control | dose: 200.0 mg/kg/injection, schedule: Q04DX002 (ip), vehicle: saline 102 % of control

CN(C)/N=C(\CBr)c1ccc(Br)cc1
inactive: dose: 50.0 mg/kg/injection, schedule: Q01DX009 (ip), vehicle: saline with Tween-80 96 % of control | [9] 107 % of control | [10] 89 % of control

C=C1CC(c2ccc(S(=O)(=O)N3CCCC3)cc2)OC1=O (stereo not drawn)
inactive: [11] 95 % of control | [12] 98 % of control

COC(=O)NC1C(C)C=CC(C)C1I (stereo not drawn)
inactive: dose: 100.0 mg/kg/injection, schedule: Q01DX009 (ip), vehicle: other 109 % of control | [6] 104 % of control | dose: 200.0 mg/kg/injection, schedule: Q01DX009 (ip), vehicle: other 96 % of control | [7] 98 % of control | dose: 400.0 mg/kg/injection, schedule: Q01DX009 (ip), vehicle: other 113 % of control | [8] 97 % of control

CN(C)Cc1cccc(N)c1
inactive: dose: 12.5 mg/kg/injection, schedule: Q01DX009 (ip), vehicle: water 102 % of control | dose: 25.0 mg/kg/injection, schedule: Q01DX009 (ip), vehicle: water 100 % of control | dose: 25.0 mg/kg/injection, schedule: Q04DX003 (ip), vehicle: water 104 % of control | dose: 50.0 mg/kg/injection, schedule: Q01DX009 (ip), vehicle: water 100 % of control | dose: 50.0 mg/kg/injection, schedule: Q04DX003 (ip), vehicle: water 95 % of control | dose: 100.0 mg/kg/injection, schedule: Q04DX003 (ip), vehicle: water 96 % of control and 102 % of control

FC(F)(F)C(F)(C1=NS1(F)C(F)(C(F)(F)F)C(F)(F)F)C(F)(F)F (stereo not drawn)
inactive: dose: 100.0 mg/kg/injection, schedule: Q01DX001 (ip), vehicle: acetone 101 % of control | dose: 200.0 mg/kg/injection, schedule: Q01DX001 (ip), vehicle: acetone 95 % of control | dose: 400.0 mg/kg/injection, schedule: Q01DX001 (ip), vehicle: acetone 100 % of control

C/C(=N\NC(N)=O)C(F)(F)F
inactive: dose: 15.0 mg/kg/injection, schedule: Q01DX Z (ip), vehicle: carboxymethylcellulose (CMC) 110 % of control | dose: 30.0 mg/kg/injection, schedule: Q01DX Z (ip), vehicle: carboxymethylcellulose (CMC) 93 % of control | dose: 60.0 mg/kg/injection, schedule: Q01DX Z (ip), vehicle: carboxymethylcellulose (CMC) 100 % of control and 103 % of control | dose: 120.0 mg/kg/injection, schedule: Q01DX Z (ip), vehicle: carboxymethylcellulose (CMC) 103 % of control and 109 % of control | dose: 120.0 mg/kg/injection, schedule: Q01DX Z (oral), vehicle: carboxymethylcellulose (CMC) 109 % of control | dose: 240.0 mg/kg/injection, schedule: Q01DX Z (ip), vehicle: carboxymethylcellulose (CMC) 112 % of control | dose: 240.0 mg/kg/injection, schedule: Q01DX Z (oral), vehicle: carboxymethylcellulose (CMC) 101 % of control | dose: 480.0 mg/kg/injection, schedule: Q01DX Z (oral), vehicle: carboxymethylcellulose (CMC) 90 % of control

NCCC1=NCCN1
inactive: [11] 100 % of control | [12] 104 % of control | dose: 400.0 mg/kg/injection, schedule: Q04DX002 (ip), vehicle: Klucel (hydroxypropylcellulose) (HPC) 104 % of control

COC1OC2COC(c3ccccc3)OC2C(OC)C1O (stereo not drawn)
inactive: dose: 12.5 mg/kg/injection, schedule: Q04DX002 (ip), vehicle: Klucel (hydroxypropylcellulose) (HPC) 103 % of control | dose: 25.0 mg/kg/injection, schedule: Q04DX002 (ip), vehicle: Klucel (hydroxypropylcellulose) (HPC) 100 % of control | dose: 50.0 mg/kg/injection, schedule: Q04DX002 (ip), vehicle: Klucel (hydroxypropylcellulose) (HPC) 100 % of control

O=C(Nc1cccc(Cl)c1)OCC#CCN1CCCC1
inactive: [1] 105 % of control | dose: 9.0 mg/kg/injection, schedule: Q01DX001 (ip), vehicle: saline 95 % of control and 101 % of control | [2] 105 % of control | dose: 13.0 mg/kg/injection, schedule: Q01DX001 (ip), vehicle: saline 97 % of control and 104 % of control | [3] 98 % of control and 101 % of control | dose: 30.0 mg/kg/injection, schedule: Q01DX001 (ip), vehicle: saline 98 % of control and 101 % of control | [4] 101 % of control | [5] 111 % of control

CC(C)C(C)/C=C\C(C)C1CCC2C3=CCC4CC(O)CCC4(C)C3CCC21C (stereo not drawn)
inactive: dose: 100.0 mg/kg/injection, schedule: Q01DX001 (ip), vehicle: Klucel (hydroxypropylcellulose) (HPC) 97 % of control | dose: 200.0 mg/kg/injection, schedule: Q01DX001 (ip), vehicle: Klucel (hydroxypropylcellulose) (HPC) 97 % of control | dose: 400.0 mg/kg/injection, schedule: Q01DX001 (ip), vehicle: Klucel (hydroxypropylcellulose) (HPC) 97 % of control

O=C(Nc1ccc(C(=O)Nc2cccc(C3=NCCN3)c2)cc1)Nc1ccc(C(=O)Nc2cccc(C3=NCCN3)c2)cc1
inactive: dose: 3.75 mg/kg/injection, schedule: Q01DX Z (ip), vehicle: methylcellulose (MC) 101 % of control | dose: 3.8 mg/kg/injection, schedule: Q01DX Z (ip), vehicle: methylcellulose (MC) 100 % of control | dose: 7.5 mg/kg/injection, schedule: Q01DX Z (ip), vehicle: methylcellulose (MC) 97 % of control | dose: 15.0 mg/kg/injection, schedule: Q01DX Z (ip), vehicle: methylcellulose (MC) 106 % of control | dose: 30.0 mg/kg/injection, schedule: Q01DX Z (ip), vehicle: methylcellulose (MC) 118 % of control and 86 % of control | dose: 50.0 mg/kg/injection, schedule: Q01DX001 (ip), vehicle: carboxymethylcellulose (CMC) 103 % of control | dose: 100.0 mg/kg/injection, schedule: Q01DX001 (ip), vehicle: carboxymethylcellulose (CMC) 120 % of control | dose: 120.0 mg/kg/injection, schedule: Q01DX Z (ip), vehicle: methylcellulose (MC) 124 % of control | dose: 200.0 mg/kg/injection, schedule: Q01DX001 (ip), vehicle: carboxymethylcellulose (CMC) 120 % of control | dose: 225.0 mg/kg/injection, schedule: Q01DX009 (ip), vehicle: saline with Tween-80 117 % of control | dose: 340.0 mg/kg/injection, schedule: Q01DX009 (ip), vehicle: saline with Tween-80 88 % of control | dose: 400.0 mg/kg/injection, schedule: Q01DX001 (ip), vehicle: carboxymethylcellulose (CMC) 108 % of control

Oc1ccc(C(c2ccc(O)cc2)(C(F)(F)F)C(F)(F)F)cc1
inactive: [9] 105 % of control | dose: 100.0 mg/kg/injection, schedule: Q04DX003 (ip), vehicle: alcohol 101 % of control | [10] 97 % of control | dose: 200.0 mg/kg/injection, schedule: Q04DX003 (ip), vehicle: alcohol 95 % of control | dose: 400.0 mg/kg/injection, schedule: Q01DX009 (ip), vehicle: saline with Tween-80 109 % of control | dose: 400.0 mg/kg/injection, schedule: Q04DX003 (ip), vehicle: alcohol 102 % of control

CC1(C)CN=C(c2cccc([N+](=O)[O-])c2)O1
inactive: dose: 100.0 mg/kg/injection, schedule: Q01DX009 (ip), vehicle: Klucel (hydroxypropylcellulose) (HPC) 98 % of control | dose: 200.0 mg/kg/injection, schedule: Q01DX009 (ip), vehicle: Klucel (hydroxypropylcellulose) (HPC) 105 % of control | dose: 400.0 mg/kg/injection, schedule: Q01DX009 (ip), vehicle: Klucel (hydroxypropylcellulose) (HPC) 100 % of control
